In patent publication US9822114B2, “Tricyclic oxazolidinone antibiotic compounds” (Idorsia Pharmaceuticals Ltd, priority 2008, dated 2017):

System: M. catarrhalis A894
Experiment: Minimal inhibitory concentration (MIC), microdilution method in cation-adjusted Mueller-Hinton Broth (CLSI M7-A7)
Type: cell-based
Settings: strain A894; for MIC: Moraxella catarrhalis
Experimental: Minimal inhibitory concentrations (MICs; mg/1) were determined in cation-adjusted Mueller-Hinton Broth by a microdilution method following the description given in “Methods for Dilution Antimicrobial Susceptibility Tests for Bacteria that Grow Aerobically”, Approved standard, 7th ed., Clinical and Laboratory Standards Institute (CLSI) Document M7-A7, Wayne, Pa., USA, 2006.

## O=C1CSc2ccc(N3C[C@H](CCCN[C@@H]4Cn5c(=O)ccc6ccc(F)c4c65)OC3=O)nc2N1 [Example 191, (S)-9-fluoro-1-{3-[(S)-2-oxo-3-(3-oxo-3,4-dihydro-2H-pyrido[3,2-b][1,4]thiazin-6-yl)-oxazolidin-5-yl]-propylamino}-1,2-dihydro-pyrrolo[3,2,1-U]quinolin-4-one]
  MIC for M. catarrhalis A894: ≦0.031 mg/l

## O=C1CSc2ccc(N3C[C@@H](CCCN[C@@H]4Cn5c(=O)ccc6ccc(F)c4c65)OC3=O)nc2N1 [Example 192, (S)-9-fluoro-1-{3-[(R)-2-oxo-3-(3-oxo-3,4-dihydro-2H-pyrido[3,2-b][1,4]thiazin-6-yl)-oxazolidin-5-yl]-propylamino}-1,2-dihydro-pyrrolo[3,2,1-ij]quinolin-4-one]
  MIC: ≤ 0.031 µg/mL

## O=C1COc2ccc(N3C[C@H](CCCN[C@H]4Cn5c(=O)ccc6ccc(F)c4c65)OC3=O)nc2N1 [Example 193, (R)-9-fluoro-1-{3-[(S)-2-oxo-3-(3-oxo-3,4-dihydro-2H-pyrido[3,2-b][1,4]oxazin-6-yl)-oxazolidin-5-yl]-propylamino}-1,2-dihydro-pyrrolo[3,2,1-ij]quinolin-4-one]
  MIC: ≤ 0.031 µg/mL

## O=C1COc2ccc(N3C[C@@H](CCCN[C@H]4Cn5c(=O)ccc6ccc(F)c4c65)OC3=O)nc2N1 [Example 194, (R)-9-fluoro-1-{3-[(R)-2-oxo-3-(3-oxo-3,4-dihydro-2H-pyrido[3,2-b][1,4]oxazin-6-yl)-oxazolidin-5-yl]-propylamino}-1,2-dihydro-pyrrolo[3,2,1-ij]quinolin-4-one]
  MIC: ≤ 0.031 µg/mL

## O=C1CSc2ccc(N3C[C@H](CCCN[C@H]4Cn5c(=O)ccc6ccc(F)c4c65)OC3=O)nc2N1 [Example 195, (R)-9-fluoro-1-{3-[(S)-2-oxo-3-(3-oxo-3,4-dihydro-2H-pyrido[3,2-b][1,4]thiazin-6-yl)-oxazolidin-5-yl]-propylamino}-1,2-dihydro-pyrrolo[3,2,1-ij]quinolin-4-one]
  MIC: ≤ 0.031 µg/mL

## O=C1CSc2ccc(N3C[C@@H](CCCN[C@H]4Cn5c(=O)ccc6ccc(F)c4c65)OC3=O)nc2N1 [Example 196, (R)-9-fluoro-1-{3-[(R)-2-oxo-3-(3-oxo-3,4-dihydro-2H-pyrido[3,2-b][1,4]thiazin-6-yl)-oxazolidin-5-yl]-propylamino}-1,2-dihydro-pyrrolo[3,2,1-ij]quinolin-4-one]
  MIC: ≤ 0.031 µg/mL

## (1R,2R)-2-(1-hydroxy-1-methyl-ethyl)-1-{3-[(R)-2-oxo-3-(3-oxo-3,4-dihydro-2H-benzo[1,4]thiazin-6-yl)-oxazolidin-5-yl]-propylamino}-1,2-dihydro-pyrrolo[3,2,1-ij]quinolin-4-one and (1S,2S)-2-(1-hydroxy-1-methyl-ethyl)-1-{3-[(R)-2-oxo-3-(3-oxo-3,4-dihydro-2H-benzo[1,4]thiazin-6-yl)-oxazolidin-5-yl]-propylamino}-1,2-dihydro-pyrrolo[3,2,1-ij]quinolin-4-one [Example 170]
  MIC for M. catarrhalis A894: 0.25 µg/mL

## (1R,2R)-2-hydroxymethyl-1-{3-[(R)-2-oxo-3-(3-oxo-3,4-dihydro-2H-benzo[1,4]thiazin-6-yl)-oxazolidin-5-yl]-propylamino}-1,2-dihydro-pyrrolo[3,2,1-ij]quinolin-4-one and (1S,2S)-2-hydroxymethyl-1-{3-[(R)-2-oxo-3-(3-oxo-3,4-dihydro-2H-benzo[1,4]thiazin-6-yl)-oxazolidin-5-yl]-propylamino}-1,2-dihydro-pyrrolo[3,2,1-ij]quinolin-4-one [Example 163]
  MIC for M. catarrhalis A894: 0.031 µg/mL

## (1R,2R)-2-hydroxymethyl-1-{3-[(S)-2-oxo-3-(3-oxo-3,4-dihydro-2H-benzo[1,4]thiazin-6-yl)-oxazolidin-5-yl]-propylamino}-1,2-dihydro-pyrrolo[3,2,1-ij]quinolin-4-one and (1S,2S)-2-hydroxymethyl-1-{3-[(S)-2-oxo-3-(3-oxo-3,4-dihydro-2H-benzo[1,4]thiazin-6-yl)-oxazolidin-5-yl]-propylamino}-1,2-dihydro-pyrrolo[3,2,1-ij]quinolin-4-one [Example 164]
  MIC for M. catarrhalis A894: 0.031 µg/mL

## (1R,2R)-2-methoxymethyl-1-{3-[(R)-2-oxo-3-(3-oxo-3,4-dihydro-2H-benzo[1,4]thiazin-6-yl)-oxazolidin-5-yl]-propylamino}-1,2-dihydro-pyrrolo[3,2,1-ij]quinolin-4-one and (1S,2S)-2-methoxymethyl-1-{3-[(R)-2-oxo-3-(3-oxo-3,4-dihydro-2H-benzo[1,4]thiazin-6-yl)-oxazolidin-5-yl]-propylamino}-1,2-dihydro-pyrrolo[3,2,1-ij]quinolin-4-one [Example 165]
  MIC for M. catarrhalis A894: 0.125 µg/mL

## (1R,2R)-4-oxo-1-{3-[(R)-2-oxo-3-(3-oxo-3,4-dihydro-2H-benzo[1,4]thiazin-6-yl)-oxazolidin-5-yl]-propylamino}-1,2-dihydro-4H-pyrrolo[3,2,1-ij]quinoline-2-carboxylic acid methyl ester and (1S,2S)-4-oxo-1-{3-[(R)-2-oxo-3-(3-oxo-3,4-dihydro-2H-benzo[1,4]thiazin-6-yl)-oxazolidin-5-yl]-propylamino}-1,2-dihydro-4H-pyrrolo[3,2,1-ij]quinoline-2-carboxylic acid methyl ester [Example 161]
  MIC for M. catarrhalis A894: 0.125 µg/mL

## (1R,2R)-4-oxo-1-{3-[(S)-2-oxo-3-(3-oxo-3,4-dihydro-2H-benzo[1,4]thiazin-6-yl)-oxazolidin-5-yl]-propylamino}-1,2-dihydro-4H-pyrrolo[3,2,1-ij]quinoline-2-carboxylic acid methyl ester and (1S,2S)-4-oxo-1-{3-[(S)-2-oxo-3-(3-oxo-3,4-dihydro-2H-benzo[1,4]thiazin-6-yl)-oxazolidin-5-yl]-propylamino}-1,2-dihydro-4H-pyrrolo[3,2,1-ij]quinoline-2-carboxylic acid methyl ester [Example 162]
  MIC for M. catarrhalis A894: 0.25 µg/mL

## (1R,2S)-2-methyl-1-{3-[(R)-2-oxo-3-(3-oxo-3,4-dihydro-2H-benzo[1,4]thiazin-6-yl)-oxazolidin-5-yl]-propylamino}-1,2-dihydro-pyrrolo[3,2,1-ij]quinolin-4-one and (1S,2R)-2-methyl-1-{3-[(R)-2-oxo-3-(3-oxo-3,4-dihydro-2H-benzo[1,4]thiazin-6-yl)-oxazolidin-5-yl]-propylamino}-1,2-dihydro-pyrrolo[3,2,1-ij]quinolin-4-one [Example 166]
  MIC for M. catarrhalis A894: ≦0.031 mg/l

## (1R,2S)-2-methyl-1-{3-[(R)-2-oxo-3-(3-oxo-3,4-dihydro-2H-pyrido[3,2-b][1,4]thiazin-6-yl)-oxazolidin-5-yl]-propylamino}-1,2-dihydro-pyrrolo[3,2,1-ij]quinolin-4-one and (1S,2R)-2-methyl-1-{3-[(R)-2-oxo-3-(3-oxo-3,4-dihydro-2H-pyrido[3,2-b][1,4]thiazin-6-yl)-oxazolidin-5-yl]-propylamino}-1,2-dihydro-pyrrolo[3,2,1-ij]quinolin-4-one [Example 168]
  MIC for M. catarrhalis A894: ≦0.031 mg/l
